Patent publication US11440899B2, “Pyrimidine TBK/IKKe inhibitor compounds and uses thereof” (Merck Patent GmbH, priority 2017, dated 2022)
pIC50: −log10 of the molar value.

Key:
IKKe = IKKe (Homo sapiens (Human), UniProt Q14164); assay: IKKe Biochemical Assay
Protocol: IKKe Biochemical Assay Test compounds were transferred into Labcyte polypropylene 384 well plates ([…]-25) and diluted to 3 mM using DMSO. 3 mM test compounds were dispensed using Labcyte ECHO dose response module into Greiner 784075 plates (columns 3-12 and 13-22, 10 point 1:4) so that high concentration was 30 uM final. 100 uM of a reference compound (1 uM final high concentration). Backfilling was performed if necessary so that all wells contain 1% DMSO final: add 75 nl DMSO/well into columns 1, 2 and 24 using Labcyte Echo. add 75 nl 1.0 mM staurosporine/well into column 23 using Labcyte Echo (10 uM final) add 4.5 ul enzyme/well using multidrop dispenser add 3 ul substrate/well using multidrop dispenser incubate at 25° C. for 90 min. add 7.5 ul 2× stop buffer read on labchip ez reader II using IKKε. job Raw data files were opened in the Caliper LabChip Reviewer program (Version 3.0.265.0 SP2) and peak assignments were adjusted to reflect “substrate first” with the software's post-run analysis options. A spline-fit baseline was applied using the software's analysis algorithm.

TBK1 = TBK1 (Homo sapiens (Human), UniProt Q9UHD2); assay: TBK Biochemical Assay
Sequence of TBK1 (Q9UHD2 whole entry, species assumed): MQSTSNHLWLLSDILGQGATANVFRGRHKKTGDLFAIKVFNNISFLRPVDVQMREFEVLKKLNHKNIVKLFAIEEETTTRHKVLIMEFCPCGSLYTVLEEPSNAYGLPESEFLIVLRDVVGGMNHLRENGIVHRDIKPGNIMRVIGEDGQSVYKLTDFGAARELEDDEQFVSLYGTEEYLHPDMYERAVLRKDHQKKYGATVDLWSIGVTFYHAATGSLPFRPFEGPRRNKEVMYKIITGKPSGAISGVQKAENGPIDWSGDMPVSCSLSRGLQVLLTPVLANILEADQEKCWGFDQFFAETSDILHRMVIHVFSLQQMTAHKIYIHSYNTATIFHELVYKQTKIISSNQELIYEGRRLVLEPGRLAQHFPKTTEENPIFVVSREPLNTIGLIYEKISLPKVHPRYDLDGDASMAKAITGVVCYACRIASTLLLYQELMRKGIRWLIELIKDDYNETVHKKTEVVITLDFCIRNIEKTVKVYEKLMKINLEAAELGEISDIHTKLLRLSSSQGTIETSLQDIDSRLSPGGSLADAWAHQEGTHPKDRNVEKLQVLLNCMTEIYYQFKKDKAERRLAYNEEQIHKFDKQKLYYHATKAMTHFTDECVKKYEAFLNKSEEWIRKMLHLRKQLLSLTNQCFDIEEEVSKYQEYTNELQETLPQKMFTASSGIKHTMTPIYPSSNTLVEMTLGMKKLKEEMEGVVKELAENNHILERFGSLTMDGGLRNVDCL
Protocol: Example 106: TBK Biochemical Assay Test compounds were transferred into Labcyte polypropylene 384 well plates ([…]-25) and diluted to 3 mM using DMSO. 3 mM test compounds were dispensed using Labcyte ECHO dose response module into Greiner 784075 plates (columns 3-12 and 13-22, 10 point 1:4) so that high concentration was 30 uM final. 100 uM of a reference compound (1 uM final high concentration). Backfilling was performed if necessary so that all wells contain 1% DMSO final: add 75 nl DMSO/well into columns 1, 2 and 24 using Labcyte Echo. add 75 nl 1.0 mM staurosporine/well into column 23 using Labcyte Echo (10 uM final) add 4.5 ul enzyme/well using multidrop dispenser add 3 ul substrate/well using multidrop dispenser incubate at 25° C. in Heidolph incubator for 90 min. add 7.5 ul 2× stop buffer using multidrop dispenser read on labchip ez reader II using TBK1.job Raw data files were opened in the Caliper LabChip Reviewer program (Version 3.0.265.0 SP2) and peak assignments were adjusted to reflect “substrate first” with the software's post-run analysis options. A spline-fit baseline was applied using the software's analysis algorithm.

Sequence of IKKe (Q14164 whole entry, species assumed): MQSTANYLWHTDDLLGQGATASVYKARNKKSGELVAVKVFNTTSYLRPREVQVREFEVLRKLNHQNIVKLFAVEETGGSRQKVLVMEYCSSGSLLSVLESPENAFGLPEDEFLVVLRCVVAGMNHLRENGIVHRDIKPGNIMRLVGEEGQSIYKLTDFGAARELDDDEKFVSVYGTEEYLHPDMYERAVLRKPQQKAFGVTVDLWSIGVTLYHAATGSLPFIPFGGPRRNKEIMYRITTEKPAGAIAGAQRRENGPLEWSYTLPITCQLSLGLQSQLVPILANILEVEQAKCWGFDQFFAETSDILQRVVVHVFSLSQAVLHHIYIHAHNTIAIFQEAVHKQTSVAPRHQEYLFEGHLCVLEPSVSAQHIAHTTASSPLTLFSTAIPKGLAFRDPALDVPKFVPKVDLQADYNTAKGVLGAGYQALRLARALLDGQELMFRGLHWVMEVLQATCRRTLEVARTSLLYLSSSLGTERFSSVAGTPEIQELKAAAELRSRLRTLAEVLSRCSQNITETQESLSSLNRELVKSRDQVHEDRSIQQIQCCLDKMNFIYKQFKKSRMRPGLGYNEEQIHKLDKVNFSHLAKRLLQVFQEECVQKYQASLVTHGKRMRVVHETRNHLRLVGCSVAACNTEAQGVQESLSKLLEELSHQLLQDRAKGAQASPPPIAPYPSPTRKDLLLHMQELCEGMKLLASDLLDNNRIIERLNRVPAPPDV

Row | SMILES | pIC50 (IKKe) | pIC50 (TBK1)
1 | COc1nc(Nc2cc(-c3cc(C#N)c(OC4CCOCC4)cn3)ncn2)ccc1C(=O)N(C)C [Example 26, 6-([6-[4-cyano-5-(oxan-4-yloxy)pyridin-2-yl]pyrimidin-4-yl]amino)-2-methoxy-N,N-dimethylpyridine-3-carboxamide] | > 7.00 | > 7.00
2 | COc1nc(Nc2cc(-c3ccc(OC4CCOCC4)c(C#N)c3)ncn2)ccc1C1CCN(CC(F)(F)F)CC1 [Example 27, 5-[6-([6-methoxy-5-[1-(2,2,2-trifluoroethyl)piperidin-4-yl]pyridin-2-yl]amino)pyrimidin-4-yl]-2-(oxan-4-yloxy)benzonitrile] | 6.00 to 7.00 | 6.00 to 7.00
3 | COc1nc(Nc2cc(-c3ccc(OC4CCOCC4)c(C#N)c3)ncn2)ccc1C1CCN(CC(F)F)CC1 [Example 28, 5-[6-([5-[1-(2,2-difluoroethyl)piperidin-4-yl]-6-methoxypyridin-2-yl]amino)pyrimidin-4-yl]-2-(oxan-4-yloxy)benzonitrile] | > 7.00 | > 7.00
4 | CN(C)C(=O)c1ccc(Nc2cc(-c3ccc(OC4CCOCC4)c(C#N)c3)ncn2)nc1 [Example 30, 6-([6-[3-cyano-4-(oxan-4-yloxy)phenyl]pyrimidin-4-yl]amino)-N,N-dimethylpyridine-3-carboxamide] | > 7.00 | > 7.00
5 | COc1cc(Nc2cc(-c3ccc(OC4CCOCC4)c(C#N)c3)ncn2)ncc1C(=O)N(C)C [Example 31, 6-([6-[3-cyano-4-(oxan-4-yloxy)phenyl]pyrimidin-4-yl]amino)-4-methoxy-N,N-dimethylpyridine-3-carboxamide] | > 7.00 | > 7.00
6 | COc1cc(Nc2cc(-c3ccc(OC4CCOCC4)c(C#N)c3)ncn2)cnc1C(=O)N(C)C [Example 32, 5-([6-[3-cyano-4-(oxan-4-yloxy)phenyl]pyrimidin-4-yl]amino)-3-methoxy-N,N-dimethylpyridine-2-carboxamide] | 5.30 to 6.00 | 5.30 to 6.00
7 | COc1cc(Nc2cc(-c3ccc(OC4CCOCC4)c(C#N)c3)ncn2)cnc1C1CCN(C)CC1 [Example 35, 5-(6-[[5-methoxy-6-(1-methylpiperidin-4-yl)pyridin-3-yl]amino]pyrimidin-4-yl)-2-(oxan-4-yloxy)benzonitrile] | 6.00 to 7.00 | 6.00 to 7.00
8 | COc1cc(Nc2cc(-c3ccc(OC4CCOCC4)c(C#N)c3)ncn2)ncc1C1CCN(C)CC1 [Example 36, 5-(6-[[4-methoxy-5-(1-methylpiperidin-4-yl)pyridin-2-yl]amino]pyrimidin-4-yl)-2-(oxan-4-yloxy)benzonitrile] | > 7.00 | > 7.00
9 | COc1nc(Nc2cc(-c3ccc(OC4CN(C)C4)c(C#N)c3)ncn2)ccc1C(=O)N(C)C [Example 37, 6-[(6-[3-cyano-4-[(1-methylazetidin-3-yl)oxy]phenyl]pyrimidin-4-yl)amino]-2-methoxy-N,N-dimethylpyridine-3-carboxamide] | 6.00 to 7.00 | 6.00 to 7.00
10 | COc1nc(Nc2cc(-c3ccc(OC4CCN(C)C4)c(C#N)c3)ncn2)ccc1C(=O)N(C)C (centres unmarked) [Example 39, 6-[(6-[3-cyano-4-[(1-methylpyrrolidin-3-yl)oxy]phenyl]pyrimidin-4-yl)amino]-2-methoxy-N,N-dimethylpyridine-3-carboxamide] | 6.00 to 7.00 | 6.00 to 7.00
11 | CN1CCN(c2ccc(Nc3cc(-c4ccc(OC5CCN(C)C5)c(C#N)c4)ncn3)nc2)CC1 (centres unmarked) [Example 40, 5-(6-[[5-(4-methylpiperazin-1-yl)pyridin-2-yl]amino]pyrimidin-4-yl)-2-[(1-methylpyrrolidin-3-yl)oxy]benzonitrile] | 6.00 to 7.00 | 6.00 to 7.00
12 | COc1nc(Nc2cc(-c3ccc(OC4CCN(C)CC4)c(C#N)c3)ncn2)ccc1C(=O)N(C)C [Example 41, 6-[(6-[3-cyano-4-[(1-methylpiperidin-4-yl)oxy]phenyl]pyrimidin-4-yl)amino]-2-methoxy-N,N-dimethylpyridine-3-carboxamide] | 5.30 to 6.00 | 5.30 to 6.00
13 | COc1nc(Nc2cc(-c3ccc(OC4CCN(C(=O)CO)CC4)c(C#N)c3)ncn2)ccc1C(=O)N(C)C [Example 42, 6-[[6-(3-cyano-4-[[1-(2-hydroxyacetyl)piperidin-4-yl]oxy]phenyl)pyrimidin-4-yl]amino]-2-methoxy-N,N-dimethylpyridine-3-carboxamide] | > 7.00 | > 7.00

Now from value to compound:

Row | pIC50 (IKKe) | pIC50 (TBK1) | SMILES
14 | > 7.00 | > 7.00 | COc1nc(Nc2cc(-c3cc(C#N)c(OC4CCOCC4)cn3)ncn2)ccc1N1CCN(C)CC1 [Example 21, 2-(6-[[6-methoxy-5-(4-methylpiperazin-1-yl)pyridin-2-yl]amino]pyrimidin-4-yl)-5-(oxan-4-yloxy)pyridine-4-carbonitrile]
15 | 6.00 to 7.00 | 6.00 to 7.00 | COc1nc(Nc2cc(-c3ccc(OC4CCOCC4)c(C#N)n3)ncn2)ccc1N1CCN(C)CC1 [Example 22, 6-(6-[[6-methoxy-5-(4-methylpiperazin-1-yl)pyridin-2-yl]amino]pyrimidin-4-yl)-3-(oxan-4-yloxy)pyridine-2-carbonitrile]
16 | > 7.00 | > 7.00 | COc1nc(Nc2cc(-c3cnc(OC4CCOCC4)c(C#N)c3)ncn2)ccc1N1CCN(C)CC1 [Example 23, 5-(6-[[6-methoxy-5-(4-methylpiperazin-1-yl)pyridin-2-yl]amino]pyrimidin-4-yl)-2-(oxan-4-yloxy)pyridine-3-carbonitrile]
17 | > 7.00 | > 7.00 | COc1nc(Nc2cc(-c3cc(C#N)c(OC4CCOCC4)cn3)ncn2)ccc1C1CCN(C)CC1 [Example 24, 2-(6-[[6-methoxy-5-(1-methylpiperidin-4-yl)pyridin-2-yl]amino]pyrimidin-4-yl)-5-(oxan-4-yloxy)pyridine-4-carbonitrile]
18 | 5.30 to 6.00 | 5.30 to 6.00 | COc1nc(Nc2cc(-c3ccc(OC4CCOCC4)c(C#N)n3)ncn2)ccc1C1CCN(C)CC1 [Example 25, 6-(6-[[6-methoxy-5-(1-methylpiperidin-4-yl)pyridin-2-yl]amino]pyrimidin-4-yl)-3-(oxan-4-yloxy)pyridine-2-carbonitrile]
19 | > 7.00 | > 7.00 | CN1CCN(c2ccc(Nc3cc(-c4ccc(OC5CCOCC5)c(C#N)c4)ncn3)nc2)CC1 [Example 29, 5-(6-[[5-(4-methylpiperazin-1-yl)pyridin-2-yl]amino]pyrimidin-4-yl)-2-(oxan-4-yloxy)benzonitrile]
20 | > 7.00 | > 7.00 | COc1cc(Nc2cc(-c3ccc(OC4CCOCC4)c(C#N)c3)ncn2)ncc1N1CCN(C)CC1 [Example 33, 5-(6-[[4-methoxy-5-(4-methylpiperazin-1-yl)pyridin-2-yl]amino]pyrimidin-4-yl)-2-(oxan-4-yloxy)benzonitrile]
21 | 6.00 to 7.00 | 6.00 to 7.00 | COc1cc(Nc2cc(-c3ccc(OC4CCOCC4)c(C#N)c3)ncn2)cnc1N1CCN(C)CC1 [Example 34, 5-(6-[[5-methoxy-6-(4-methylpiperazin-1-yl)pyridin-3-yl]amino]pyrimidin-4-yl)-2-(oxan-4-yloxy)benzonitrile]
22 | > 7.00 | > 7.00 | COc1nc(Nc2cc(-c3ccc(OC4CN(C)C4)c(C#N)c3)ncn2)ccc1N1CCN(C)CC1 [Example 38, 5-(6-[[6-methoxy-5-(4-methylpiperazin-1-yl)pyridin-2-yl]amino]pyrimidin-4-yl)-2-[(1-methylazetidin-3-yl)oxy]benzonitrile]
